Laboratory results as given in a melting point compilation (Tetko et al.; mined from patent text by program, amines drawn as free bases though some values may be those of a salt).
Residues, ends and D or L forms follow the SMILES beside them. *: point of attachment. Cbz = O=C(OCc1ccccc1)*

| melting point [°C] | SMILES |
| --- | --- |
| 195 to 198 | N#CSc1c(-c2ncon2)nn(-c2c(Cl)cc(C(F)(F)F)cc2Cl)c1N |
| 174 to 176 | O=C(O)C1=Cc2cc(Cl)c(OCC(F)(F)F)cc2OC1C(F)(F)F (stereo not given) |
| 135 to 139 | COc1nc(-n2ncc(C#N)c2N)c(Cl)cc1C(F)(F)F |
| 72 to 75 | CCCN(CCC)C(Cc1cccc(OC)c1N(C(C)=O)C(C)=O)(C(=O)OCC)C(=O)OCC |
| 59 to 60 | Fc1cc(Cl)ccc1-n1nc2c(c1Br)CCCCC2 |
| 51 to 53 | c1ccc2c(c1)CCc1ccccc1C2CCN1CCCC1 |
| 175 to 177 | NC(=O)c1cc(NCc2cccc(F)c2)c([N+](=O)[O-])cc1[N+](=O)[O-] |
| 52 to 53 | O=C(CCCCCBr)c1cc2c3c(c1)CCC(=O)N3CCC2 |
| 189 to 192 | CC(=O)Cn1c(Oc2ccc(-n3c4ncccc4n4ccnc34)cc2)nc2ccccc21 |
| 200 to 201 | CC(=O)Nc1ccc(N2CC(CNC(C)=S)OC2=O)cc1F (stereo not given) |
| 63 to 65 | N#Cc1ccc(OCc2ccsc2)cc1F |
| 186 | CC(=O)Nc1ccc(OC(=O)CCl)cc1 |
| 95 | CCOC(=O)c1ccccc1N(CC(=O)N(C)c1ccccc1)C(=O)C(F)(F)F |
| 256 to 257 | CSC1=CC2=CN(O)NN2C(Cl)=N1 |
| 134 to 135 | COC(=O)C(C#N)=Cc1cc2c(cc1C)N(CCOC(C)=O)C(C)(C)CC2C (stereo not given) |
| 276 to 277 | N#Cc1ccc(-c2ccc(-c3ccc(C#N)nc3)o2)cc1 |
| 65 to 66 | c1ccc2c(c1)CCc1cc(C3CO3)ccc1-2 (stereo not given) |
| 154 | COc1ccc2cccc(CCN3C(=O)c4ccccc4C3=O)c2c1 |
| 76 | CCOC(=O)c1ccc(N(CC)CCc2ccccc2OCc2ccccc2)cc1 |
| 60 to 61 | COC(C)OC(=O)C1CC(=O)N(c2ccc(C(C)(C)C)cc2)C1 (stereo not given) |
| 79 to 81 | CC(C)CC(NC(=O)C(Cc1c[nH]c2ccccc12)NC(=O)OC(C)(C)C)C(=O)NCCC(=O)CCl (stereo not given) |
| 62 to 65 | CCN(CC)C(=O)n1ccc(S(=O)(=O)c2ccc(Br)cc2C(F)(F)F)n1 |
| 146 | CC(C)CNCC(=O)Nc1ccc2c(c1)C(=O)c1cc(NC(=O)CNCC(C)C)ccc1C2=O |

| melting point [°C] | SMILES |
| --- | --- |
| 140 to 146 | CCCCCCCCC(O)CNCCNCC(O)CCCCCCCC (stereo not given) |
| 152 to 153 | CCc1cc(/C=C/C(N)=O)ccc1Cl |
| 142 to 148 | CC1(C=C(F)F)CN(C(=O)Nc2ccc(OC(F)(F)F)cc2)N=C1c1ccc(Cl)cc1 (stereo not given) |
| 218 to 221 | Cc1nc(N2CCN(CCCc3ccccc3)C2=O)sc1C(=O)O |
| 148 | Cc1cc(-n2cccn2)c2cccc(OCc3c(Cl)ccc(S(=O)(=O)N4CCC[C@H]4C(=O)O)c3Cl)c2n1 |
| 187 | C#Cc1ccc(C(O)C2C(c3ccccc3)CC(=O)N2C)s1 (stereo not given) |
| 202 to 204 | COc1nc2ccccc2nc1NC(=O)N1CCC(c2ccccc2)(c2ccccc2)CC1 |
| 260 to 262 | CC(C)C[C@H]1CNC[C@H]1C(=O)O (relative stereo) |
| 67 | C=CCc1c([N+](=O)[O-])ccc2c1OC(CO)CO2 (stereo not given) |
| 109 to 111 | CC(C)(C)OC(=O)N1CCC[C@H]1C(=O)O[C@H]1CO[C@H]2[C@H]1OC[C@H]2O[N+](=O)[O-] |
| 156 | CC(=O)NCc1ccc2c(c1)ncn2-c1cccc(-c2nccs2)c1 |
| > 400 | O=C(O)c1cc(I)cc2c(=O)c3ccccc3[nH]c12 |
| 216 to 218 | CCOC(=O)CNC(=O)c1cc(C(=O)c2ccccc2Cl)c(N)s1 |
| 145 to 147 | O=C1c2ccccc2C(=O)N1c1ccccc1CSc1nccn1-c1ccncc1 |
| 175 to 177 | NC(=O)C(Cc1ccccc1)NC(=O)Nc1n[nH]c(=S)s1 (stereo not given) |
| 183 to 184 | O=C1OC(=O)C(c2ccccc2)=C1c1ccccc1 |
| 180 to 181 | Cc1nc2ccc(C(=O)NS(=O)(=O)c3ccccc3)nc2n1Cc1ccc(CCc2ccccc2)cc1Cl |
| 180 to 181 | CCOCc1nc2c(N)nc3ccccc3c2n1CCc1cc(-c2ccc(F)cc2)no1 |
| 234 to 235 | CCn1cc(C(=O)O)c(=O)c2cc(Cl)c(N3CCN(c4ccccc4)CC3)cc21 |
| 236 | COC(=O)C1=C(C)Nc2nc(N3CCOCC3)nc(N3CCOCC3)c2C1c1ccc([N+](=O)[O-])cc1 (stereo not given) |
| 244 to 247 | CC(c1oc2ccccc2c(=O)c1-c1cccc(F)c1)n1nc(-c2ccc(O)c(F)c2)c2c(N)ncnc21 (stereo not given) |
| 180 to 182 | CN1CCN(c2cccc(CS(=O)(=O)c3ccccc3)c2[N+](=O)[O-])CC1 |
| 142 | CC(C)c1ccc(C(=O)NC/C=C/c2ccccc2)cc1 |

| melting point [°C] | SMILES |
| --- | --- |
| 134 to 135 | COCOc1nn(-c2ccccc2)cc1/C=C/c1csc(-c2ccccc2C(=O)OC)n1 |
| 238 to 240 | Nc1c([N+](=O)[O-])sc2c(F)cccc12 |
| 238 to 241 | COC(=O)C(Cc1ccc(O)cc1)NC(=O)C(CO)NC(=O)C(Cc1c[nH]c2ccccc12)NC(=O)C(CCC(N)=O)NC(=O)OCc1ccccc1 (stereo not given) (Cbz-QWSY-OMe; configuration not given here) |
| 161 | Cc1ccc(OC(C)C(=O)c2cc(C(C)(C)C)c(O)c(C(C)(C)C)c2)c(-n2nc3ccccc3n2)c1 (stereo not given) |
| 208 | COc1cc([N+](=O)[O-])c(N)cc1O |
| 250 to 252 | CN(C)S(=O)(=O)c1ccc2c(C=O)c[nH]c2c1 |
| 48 | CC(C)(O)C(O)(C(F)(F)F)C(F)(F)F |
| 144 to 146 | CCCCc1nc2c(N)nc3ccccc3c2n1CCCCCCl |
| 75 to 78.5 | O=C(On1nnc2ccccc21)c1ccccc1 |
| 147 to 150 | COC(=O)CCCCCCCCOC1OC(CO)C(O)C(OC2OC(CO)C(O)C(O)C2O)C1OC1OC(C)C(O)C(O)C1O (stereo not given) |
| 118 to 121 | CCCCCCCc1ccccc1C=CC(=O)c1ccc(OCC=C(C)C)cc1OCC(=O)O |
| 294 to 295 | O=C(NCC12CC3CC(CC(C3)C1)C2)c1c(Cl)ccc2nc(N3CCC(n4cn[nH]c4=O)CC3)ccc12 |
| 194 to 198 | Cc1cc(C)c(S(=O)(=O)OS(=O)(=O)c2c(C)cc(C)cc2C)c(C)c1 |
| 100 to 102 | C#CCN1C(=O)COc2ccc(C3CC(=O)C(C(CC)=NOCC)=C(O)C3)cc21 (stereo not given) |
| 145 | CCC(C)n1ncn(-c2ccc(N3CCN(c4ccc(OC)cc4)CC3)c(Br)c2)c1=O (stereo not given) |
| > 290 | O=[N+]([O-])c1cn2c(n1)OC[C@@H](OCc1ncc(Br)cn1)C2 |
| 55 | CCCC(Cc1ccc(OCCN2CCCCCC2)cc1)(C(=O)O)S(=O)(=O)c1ccc(OC)cc1 (stereo not given) |
| 230 | CN(C)CCNc1c(-c2ccccc2)c(=O)[nH]c2cc(Cl)ccc12 |
| 226 | CC(=O)OC1CSC(Oc2ccc(-c3ccnc(Cl)c3)nc2)C(OC(C)=O)C1OC(C)=O (stereo not given) |
| 101 to 103 | CCc1c(C)c2c(c(OS(=O)(=O)c3ccc(C)cc3)c1C/C=C(\C)CCC(=O)OC)C(=O)OC2 |
| 70 to 72 | CC(C)C(OCc1ccccc1)[C@H]1[C@H]([N+](=O)[O-])[C@@H](c2ccco2)N[C@@H]1C(=O)NCCC(=O)O (stereo not given in full) |
| 139 to 149 | O=C(Nc1ccccc1)c1cccs1 |
| 54.5 to 56 | COCCCCC(=O)c1ccc([N+](=O)[O-])c(Cl)c1 |

| melting point [°C] | SMILES |
| --- | --- |
| 268 to 270 | CCCNC1=NS(=O)(=O)c2cc([N+](=O)[O-])ccc2N1 |
| 68 to 69 | COCCSCC(=O)[C@H](Cc1ccccc1)NC(=O)[C@H](CC(C)C)NC(=O)OCc1ccccc1 |
| 142 to 143 | CC(=N)NC=Cc1ccc([N+](=O)[O-])cc1 |
| 136 to 138 | CCOCc1cc2cc(Cl)ccc2oc1=Nc1ccc(OC)cc1 |
| 214 to 215 | Oc1c(-c2ccccc2)sc2c(C(O)c3ccccc3)nccc12 (stereo not given) |
| 165 to 170 | Cc1c(C(N)=O)c(C(F)(F)F)nn1-c1c(Cl)cc(C(F)(F)F)cc1Cl |
| 90 to 92 | CCCCCS(=O)(=O)NC(=O)/C=C/c1ccc(OCCC2(C)OCCO2)cc1Oc1ncc(C(F)(F)F)cc1Cl |
| 76 to 77 | CCCCCCCCCCCCCCCCCCOc1cc(OCCCOc2ccc(OCc3ccccc3)cc2)cc(C(=O)OC)c1 |
| 118 to 119 | CCOC(=O)CCC(=NOCc1ccc(OCc2nc(-c3ccccc3)oc2C)cc1)c1ccc(Oc2ccccc2)cc1 |
| 140 | O=C(c1ccc(O)cc1)c1ccc(Cl)cc1Cl |
| 111 to 112 | COc1ccc(C(=O)N2CCN(Cc3ccccc3)c3ccccc32)cc1OC |
| 188 to 191 | O=C(Nc1ncco1)C1c2ccccc2Sc2ccccc21 |
| 190 | CC(=Cc1ccccc1)n1c(=O)[nH]c2ccc(F)cc21 |
| 159 | CC(=O)OC1CSC(Oc2cnccc2-c2cccnc2)C(OC(C)=O)C1OC(C)=O (stereo not given) |
| > 260 | O=C(CN1C(=O)c2ccccc2C1=O)NNC(=O)c1ncn2c1[C@@H]1CCN1C(=O)c1sccc1-2 |
| > 300 | O=C(Nc1cccc2c1C(=O)c1c-2n[nH]c1-c1ccc(C(=O)NC2CCCNC2)s1)NN1CCOCC1 (stereo not given) |
| 84 to 85 | CCCCCC(C#CC1C(O)CC(=O)C1CCCCCCC(=O)OC)OC1CCCCO1 (mixture of isomers) |
| 105 to 106 | CCCOc1n[nH]c(=O)n1C1CC1 |
| 180 to 182 | COC(=O)c1ccc(N=Cc2ccc(OC)c(C34CC5CC(CC(C5)C3)C4)c2)cc1 |
| 96 to 98 | CCCCCNc1cccc2c1C(=O)N(C1(C)CCC(=O)NC1=O)C2=O (stereo not given) |
| 192 | COc1cccc(C2=C(C#N)C(c3ccccc3OC)c3c[nH]nc3N2)c1 (stereo not given) |
| 160 | O=C(Nc1cccc(Cl)c1)O[C@H]1COC(c2ccccc2)=N[C@@H]1c1ccccc1 (racemic) |

| SMILES | melting point [°C] |
| --- | --- |
| NC(=O)c1ncn2c1[C@@H]1CCN1C(=O)c1cc(F)ccc1-2 | 223 to 224 |
| C#CCN1CCc2ccc([N+](=O)[O-])cc2CC1 | 122 to 125 |
| COc1ccc(N(C(=O)CN2C(=O)C(Cc3n[nH]c4ncccc34)C(=O)N(c3ccccc3)c3ccccc32)C(C)C)cc1 (stereo not given) | 156 to 158 |
| CN1CC=C(c2c[nH]c3ccc(Sc4ccccc4)cc23)CC1 | 225 to 228 |
